In ChEMBL document CHEMBL1130891, “Solid-phase synthesis of N-substituted amidinophenoxy pyridines as factor XA inhibitors” (Bioorg Med Chem Lett, 1998) one finds Ki data, which are given here for 18 molecules.

What is called Ki is a measure of affinity in units of concentration, obtained from inhibition or displacement.

The target of the assay is Coagulation factor X (Homo sapiens, UniProt P00742). Kind of assay: Binding affinity was evaluated against Coagulation factor X.
Coagulation factor X, sequence (P00742 41-179 limits assumed): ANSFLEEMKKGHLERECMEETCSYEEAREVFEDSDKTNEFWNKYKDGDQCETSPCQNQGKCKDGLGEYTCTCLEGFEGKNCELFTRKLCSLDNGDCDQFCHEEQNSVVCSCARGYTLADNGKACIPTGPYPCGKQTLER
Coagulation factor X, sequence (P00742 235-488 limits assumed): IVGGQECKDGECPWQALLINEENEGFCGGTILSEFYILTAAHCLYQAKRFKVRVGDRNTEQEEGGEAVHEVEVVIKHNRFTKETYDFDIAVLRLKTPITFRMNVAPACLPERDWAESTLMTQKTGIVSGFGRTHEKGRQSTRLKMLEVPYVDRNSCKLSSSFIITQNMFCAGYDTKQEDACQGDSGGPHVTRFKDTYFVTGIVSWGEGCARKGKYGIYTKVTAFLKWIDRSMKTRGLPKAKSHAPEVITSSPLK

`Cc1c(F)c(Oc2cccc(C(=N)N)c2)nc(N2CCN(C3CCCCC3)CC2)c1F`: the affinity corresponds to a Ki of 0.495 µM. The result for `Cc1c(F)c(Oc2cccc(C(=N)N)c2)nc(N2CCN(c3ccco3)CC2)c1F` reads more than 5 µM; that for `Cc1c(F)c(Oc2cccc(C(=N)N)c2)nc(N2CCN(CC(=O)N3CCOCC3)CC2)c1F`, more than 5 µM; that for `N=C(N)c1cccc(COc2ccccc2)c1`, 0.0068 µM. The result for `Cc1c(F)c(Oc2cccc(C(=N)N)c2)nc(N2CCC[C@H]2CO)c1F` reads more than 5 µM; that for `Cc1c(F)c(Oc2cccc(C(=N)N)c2)nc(N2CCC(C)(c3ccccc3)CC2)c1F`, 0.56 µM. `CC(=N)N1CCC(Oc2nc(Oc3cccc(C(=N)N)c3)c(F)c(C)c2F)C1` (stereo not drawn) gave a Ki of more than 5 µM.

For the molecule `N=C(N)c1ccccc1` [BENZAMIDINE], the Ki is 0.41 µM. Then `Cc1cccc(C)c1N1CCN(c2nc(Oc3cccc(C(=N)N)c3)c(F)c(C)c2F)CC1`, with more than 5 µM.

In the case of `CCOC(=O)C1CCCN(c2nc(Oc3cccc(C(=N)N)c3)c(F)c(C)c2F)C1` (stereo not drawn), the Ki was more than 5 µM. The result for `Cc1c(F)c(NCCN(C)C)nc(Oc2cccc(C(=N)N)c2)c1F` reads more than 5 µM; that for `N=C(N)c1ccc(/C=C2/CCCC/C(=C/c3ccc(C(=N)N)cc3)C2=O)cc1`, 0.013 µM. Then `Cc1c(F)c(NC2CCCCC2)nc(Oc2cccc(C(=N)N)c2)c1F`, with more than 5 µM; and `Cc1c(F)c(NCCCN2CCCC2=O)nc(Oc2cccc(C(=N)N)c2)c1F`, with more than 5 µM; and `Cc1c(F)c(Oc2cccc(C(=N)N)c2)nc(N2CCN(C)CC2)c1F`, with more than 5 µM. The result for `Cc1c(F)c(Oc2cccc(C(=N)N)c2)nc(N2CCN(c3ccc4c(c3)OCO4)CC2)c1F` reads more than 5 µM; that for `Cc1c(F)c(Oc2cccc(C(=N)N)c2)nc(OC2CCNC2)c1F` (stereo not drawn), more than 5 µM. `CCCOCCNc1nc(Oc2cccc(C(=N)N)c2)c(F)c(C)c1F`: the Ki was more than 5 µM.
